The values that follow come from patent US10004701B2, “Methods and compositions for treating infection” (UNIVERSITY OF ROCHESTER, priority 2012, dated 2018).

Holding throughout (test): AK assay 384-well format, Prestwick library screening
Test [1] relates to S. aureus strain USA300-0114. The class given is cell-based, Staphylococcus aureus. As to conditions: for fold induction at 50 µM: Staphylococcus aureus, USA300, 3 h.
Test [2] deals with A. baumannii strain 98-37-09. The format is cell-based, Acinetobacter baumannii. As to conditions: for fold induction at 50 µM: Acinetobacter baumannii, 983709, 3 h.
A further test concerns P. aeruginosa. The format is cell-based, Pseudomonas aeruginosa. The conditions noted are these: for fold induction at 50 µM: Pseudomonas aeruginosa, 3 h.
For the next test, the system named is E. faecium. The format is cell-based, Enterococcus faecium. The conditions noted are these: for fold induction at 50 µM: Enterococcus faecium, 3 h.
The test system of another test is K. pneumoniae. The class given is cell-based, Klebsiella pneumoniae. The conditions noted are these: for fold induction at 50 µM: Klebsiella pneumoniae, 3 h.
The next test relates to E. cloacae. The class given is cell-based, Enterobacter cloacae. The conditions noted are these: for fold induction at 50 µM: Enterobacter cloacae, 3 h.
For the next test, the system named is E. coli. The class given is cell-based, Escherichia coli. The conditions noted are these: for fold induction at 50 µM: Escherichia coli, 3 h.
The mark [3] stands for this setting: 50 μM final drug concentration, planktonic, cutoff for positive 3-fold increase, read-out: AK-based Prestwick Library Screening Results, S. aureus (fold increase in extracellular AK activity).
Setting [4] is: 50 μM final drug concentration, planktonic, cutoff for positive 3-fold increase, read-out: AK-based Prestwick Library Screening Results, A. baumannii (fold increase in extracellular AK activity).
The mark [5] stands for this setting: 50 μM final drug concentration, planktonic, cutoff for positive 3-fold increase, read-out: AK-based Prestwick Library Screening Results, P. aeruginosa (fold increase in extracellular AK activity).
[6] abbreviates: 50 μM final drug concentration, planktonic, cutoff for positive 3-fold increase, read-out: AK-based Prestwick Library Screening Results, E. faecium (fold increase in extracellular AK activity).
Setting [7] is: 50 μM final drug concentration, planktonic, cutoff for positive 3-fold increase, read-out: AK-based Prestwick Library Screening Results, K. pneumoniae (fold increase in extracellular AK activity).
[8] abbreviates: 50 μM final drug concentration, planktonic, cutoff for positive 3-fold increase, read-out: AK-based Prestwick Library Screening Results, E. cloacae (fold increase in extracellular AK activity).
Setting [9] is: 50 μM final drug concentration, planktonic, cutoff for positive 3-fold increase, read-out: AK-based Prestwick Library Screening Results, E. coli (fold increase in extracellular AK activity).
[10] abbreviates: 50 μM final drug concentration, planktonic, cutoff for positive-scoring molecules 3-fold increase.

Structures can show the parent of a compound that is named as a salt. Where two headings read alike, the source gives them in different places.

Take `CC(C)(Oc1ccc(CCNC(=O)c2ccc(Cl)cc2)cc1)C(=O)O` [Bezafibrate]: the fold induction at 50 µM worked out at 1.1 in test [1] (setting [3]); 0.8 in test [2] (setting [4]); 1 in the test on P. aeruginosa (setting [5]); 0.8 in the test on E. faecium (setting [6]); 0.7 in the test on K. pneumoniae (setting [7]); 1.5 in the test with E. cloacae (setting [8]). Further, the fold induction at 50 µM with E. coli (setting [9]) was determined as 0.9.

On to Butirosin disulfate salt, for which the “AK-based Prestwick Library Screening Results, S. aureus (fold increase in extracellular AK activity)” value in test [1] (setting [10]) worked out at 0.5. Besides, the “AK-based Prestwick Library Screening Results, A. baumannii (fold increase in extracellular AK activity)” value in test [2] (setting [10]) turned out to be 0.5. In addition, the “AK-based Prestwick Library Screening Results, P. aeruginosa (fold increase in extracellular AK activity)” value with P. aeruginosa (setting [10]) amounted to 0.5. Further, the “AK-based Prestwick Library Screening Results, E. faecium (fold increase in extracellular AK activity)” value with E. faecium (setting [10]) is listed as 0.8. The “AK-based Prestwick Library Screening Results, K. pneumoniae (fold increase in extracellular AK activity)” value in the test with K. pneumoniae (setting [10]) came out at 0.5. For the same molecule, the “AK-based Prestwick Library Screening Results, E. cloacae (fold increase in extracellular AK activity)” value with E. cloacae (setting [10]) was found to be 0.4. In addition, the “AK-based Prestwick Library Screening Results, E. coli (fold increase in extracellular AK activity)” value in the test on E. coli (50 μM final drug concentration, planktonic, […]) is 0.5.

As to `Clc1ccccc1C(c1ccccc1)(c1ccccc1)n1ccnc1` [Clotrimazole], the fold induction at 50 µM in test [1] (50 μM final drug concentration, 384-well format, cutoff for positive-scoring molecules 3-fold increase, read-out: AK-based Prestwick Library Screening Results, S. aureus (increase in extracellular AK activity)) is 2; in test [2] (50 μM final drug concentration, 384-well format, cutoff for positive-scoring molecules 3-fold increase, read-out: AK-based Prestwick Library Screening Results, A. baumannii (increase in extracellular AK activity)), 3.3; in the test on P. aeruginosa (50 μM final drug concentration, 384-well format, cutoff for positive-scoring molecules 3-fold increase, read-out: AK-based Prestwick Library Screening Results, P. aeruginosa (increase in extracellular AK activity)) it was 1; in the test with E. faecium (50 μM final drug concentration, 384-well format, cutoff for positive-scoring molecules 3-fold increase, read-out: AK-based Prestwick Library Screening Results, E. faecium (increase in extracellular AK activity)), 1.3; with K. pneumoniae (50 μM final drug concentration, 384-well format, cutoff for positive-scoring molecules 3-fold increase, read-out: AK-based Prestwick Library Screening Results, K. pneumoniae (increase in extracellular AK activity)), 1; in the test on E. cloacae (50 μM final drug concentration, 384-well format, cutoff for positive-scoring molecules 3-fold increase, read-out: AK-based Prestwick Library Screening Results, E. cloacae (increase in extracellular AK activity)), 1. Further, the fold induction at 50 µM in the test with E. coli (50 μM final drug concentration, 384-well format, cutoff for positive-scoring molecules 3-fold increase, read-out: AK-based Prestwick Library Screening Results, E. coli (increase in extracellular AK activity)) was found to be 1.

Regarding `O=C1C=CC(=O)c2c1ccc1c2ccc2ccccc21` [Chrysene-1,4-quinone], the fold induction at 50 µM in test [1] (50 μM final drug concentration, planktonic, […], read-out: AK-based Prestwick Library Screening Results, S. aureus (fold increase in extracellular AK activity)) worked out at 0.1; in test [2] (50 μM final drug concentration, planktonic, […], read-out: AK-based Prestwick Library Screening Results, A. baumannii (fold increase in extracellular AK activity)), 0.8; in the test on P. aeruginosa (50 μM final drug concentration, planktonic, […], read-out: AK-based Prestwick Library Screening Results, P. aeruginosa (fold increase in extracellular AK activity)) it was 1; in the test on E. faecium (50 μM final drug concentration, planktonic, […], read-out: AK-based Prestwick Library Screening Results, E. faecium (fold increase in extracellular AK activity)), 0.9; with K. pneumoniae (50 μM final drug concentration, planktonic, […], read-out: AK-based Prestwick Library Screening Results, K. pneumoniae (fold increase in extracellular AK activity)) it was 0.8; with E. cloacae (50 μM final drug concentration, planktonic, […], read-out: AK-based Prestwick Library Screening Results, E. cloacae (fold increase in extracellular AK activity)), 1.4. For the same molecule, the fold induction at 50 µM with E. coli (50 μM final drug concentration, planktonic, […], read-out: AK-based Prestwick Library Screening Results, E. coli (fold increase in extracellular AK activity)) was determined as 1.1.

In the case of `O=C1NCCN1c1ncc([N+](=O)[O-])s1` [Niridazole], the fold induction at 50 µM in test [1] (setting [3]) turned out to be 1.8; in test [2] (setting [4]) it was 1.4; in the test with P. aeruginosa (setting [5]), 1.2; with E. faecium (setting [6]), 1; in the test on K. pneumoniae (setting [7]), 6; with E. cloacae (setting [8]), 6.1. Besides, in the test on E. coli (setting [9]), the fold induction at 50 µM was 13.2.

As to `CCN(CC)C(=O)N1CCN(C)CC1` [Diethylcarbamazine citrate], the fold induction at 50 µM stood at 1.1 in test [1] (planktonic S. aureus, 50 μM final drug concentration, 384-well, cutoff for positive-scoring molecules 3-fold increase, read-out: AK-based Prestwick Library Screening Results: S. aureus (increase in extracellular AK activity)); 1.1 in test [2] (planktonic A. baumannii, 50 μM final drug concentration, 384-well, cutoff for positive-scoring molecules 3-fold increase, read-out: AK-based Prestwick Library Screening Results: A. baumannii (increase in extracellular AK activity)); 1.1 with P. aeruginosa (planktonic P. aeruginosa, 50 μM final drug concentration, 384-well, cutoff for positive-scoring molecules 3-fold increase, read-out: AK-based Prestwick Library Screening Results: P. aeruginosa (increase in extracellular AK activity)); 1.2 with E. faecium (planktonic E. faecium, 50 μM final drug concentration, 384-well, cutoff for positive-scoring molecules 3-fold increase, read-out: AK-based Prestwick Library Screening Results: E. faecium (increase in extracellular AK activity)); 0.9 in the test on K. pneumoniae (planktonic K. pneumoniae, 50 μM final drug concentration, 384-well, cutoff for positive-scoring molecules 3-fold increase, read-out: AK-based Prestwick Library Screening Results: K. pneumoniae (increase in extracellular AK activity)); 1.7 in the test on E. cloacae (planktonic E. cloacae, 50 μM final drug concentration, 384-well, cutoff for positive-scoring molecules 3-fold increase, read-out: AK-based Prestwick Library Screening Results: E. cloacae (increase in extracellular AK activity)). Further, the fold induction at 50 µM in the test on E. coli (planktonic E. coli, 50 μM final drug concentration, 384-well, cutoff for positive-scoring molecules 3-fold increase, read-out: AK-based Prestwick Library Screening Results: E. coli (increase in extracellular AK activity)) was 1.3.

For the molecule `NCCCCCC(=O)O` [Aminocaproic acid], the fold induction at 50 µM in test [1] (read-out: AK-based Prestwick Library Screening Results, S. aureus (fold increase in extracellular AK activity)) came to 1.2; in test [2] (read-out: AK-based Prestwick Library Screening Results, A. baumannii (fold increase in extracellular AK activity)), 1.3; in the test with P. aeruginosa (read-out: AK-based Prestwick Library Screening Results, P. aeruginosa (fold increase in extracellular AK activity)), 1.1; with E. faecium (read-out: AK-based Prestwick Library Screening Results, E. faecium (fold increase in extracellular AK activity)) it was 1.1; in the test with K. pneumoniae (read-out: AK-based Prestwick Library Screening Results, K. pneumoniae (fold increase in extracellular AK activity)) it was 1.2; with E. cloacae (read-out: AK-based Prestwick Library Screening Results, E. cloacae (fold increase in extracellular AK activity)) it was 1.6. For the same molecule, in the test on E. coli (read-out: AK-based Prestwick Library Screening Results, E. coli (fold increase in extracellular AK activity)), the fold induction at 50 µM turned out to be 1.2.

`C#C[C@]1(O)CC[C@H]2[C@@H]3CCC4=CC(=O)CC[C@]4(C)[C@H]3CC[C@@]21C` [Ethisterone]: the fold induction at 50 µM in test [1] (50 μM final drug concentration, 384-well format, […], read-out: AK-based Prestwick Library Screening Results, S. aureus (increase in extracellular AK activity)) came out at 0.8; in test [2] (50 μM final drug concentration, 384-well format, […], read-out: AK-based Prestwick Library Screening Results, A. baumannii (increase in extracellular AK activity)), 0.9; with P. aeruginosa (50 μM final drug concentration, 384-well format, […], read-out: AK-based Prestwick Library Screening Results, P. aeruginosa (increase in extracellular AK activity)), 1; with E. faecium (50 μM final drug concentration, 384-well format, […], read-out: AK-based Prestwick Library Screening Results, E. faecium (increase in extracellular AK activity)), 0.9; in the test on K. pneumoniae (50 μM final drug concentration, 384-well format, […], read-out: AK-based Prestwick Library Screening Results, K. pneumoniae (increase in extracellular AK activity)), 0.8; with E. cloacae (50 μM final drug concentration, 384-well format, […], read-out: AK-based Prestwick Library Screening Results, E. cloacae (increase in extracellular AK activity)), 1.1. In addition, the fold induction at 50 µM with E. coli (50 μM final drug concentration, 384-well format, […], read-out: AK-based Prestwick Library Screening Results, E. coli (increase in extracellular AK activity)) amounted to 1.
